How the values were obtained:
[1] = molecular target: T1, ACKR3 (Homo sapiens, UniProt P25106); assay: ACKR3-mediated depletion of extracellular dynorphin A monitored by its ability to activate KOR (U87-ACKR3 cells); format: cell-based; set-up: expressed in transfected cells; for the receptor comparison in the uptake assay, transient pcDNA3.1)
Experimental: In brief, 1.2×10^6 U87 cells were plated in 10 cm-culture dishes and 48 hours later co-transfected with pNBe vectors encoding GPCRs C-terminally tagged to SmBiT and human β-arrestin-1 or -2 or mini G proteins (mG, engineered GTPase domains of Gα subunits,) N-terminally fused to LgBiT. 48 hours post-transfection cells were harvested, incubated 25 minutes at 37° C. with Nano-Glo Live Cell substrate diluted 200-fold and distributed into white 96-well plates (5×10^4 cells per well). Ligand-induced, β-arrestin and mG recruitment to GPCRs was evaluated with a Mithras LB940 luminometer (Berthold Technologies) for 20 minutes. For concentration-response curves, the signal recorded with a saturating concentration of full agonist for each receptor was set as 100%.
Target sequence in this assay (P25106 whole entry, the tested form may be a part): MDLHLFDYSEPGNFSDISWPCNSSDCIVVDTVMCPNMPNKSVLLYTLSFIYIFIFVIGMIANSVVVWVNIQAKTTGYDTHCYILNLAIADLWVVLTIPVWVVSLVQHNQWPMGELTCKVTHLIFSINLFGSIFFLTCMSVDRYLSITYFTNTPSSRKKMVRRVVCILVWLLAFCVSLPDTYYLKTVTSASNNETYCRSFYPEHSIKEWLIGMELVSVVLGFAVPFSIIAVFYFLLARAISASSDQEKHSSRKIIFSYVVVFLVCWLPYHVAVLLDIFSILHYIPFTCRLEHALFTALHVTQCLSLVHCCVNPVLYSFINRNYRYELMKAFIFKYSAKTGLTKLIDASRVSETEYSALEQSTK

[2] = test system: rat locus coeruleus neurons; format: cell-based
Experimental: 1.9. Ex Vivo Rat Neuron Depolarization
Adult male Wistar rats (6 to 8-week old) were housed at room temperature in groups of three or four with a 12:12 hour light-dark cycle. All animals had access to ad libitum food and water. All procedures were carried out in accordance with guidelines of the European Communities Council Directive of 24 Nov. 1986 (86609EE) and were accepted by the Ethics Committee for Animal Use of the University of Liège (protocol 2061). All efforts were made to minimize animal suffering.
1.9.2. Brain Explant Preparation and Recording Procedures
Rats were anaesthetized with chloral hydrate (400 mg/kg, i.p.) and placed under a cap with oxygenated air (95% O2, 5% CO2) two minutes prior to decapitation. After decapitation, the brain was rapidly removed and placed in ice cold (˜2° C.) oxygenated artificial cerebrospinal fluid (aCSF) of the following composition: NaCl 130 mM, KCl 3.5 mM, NaH2PO4 1.25 mM, NaHCO3 24 mM, Glucose 10 mM, CaCl2 2 mM, MgSO4 1.25 mM. A block of tissue containing the pons was placed in a vibrating blade microtome (Vibratome 1000 Plus, Sectioning System) and a slice containing the locus coeruleus (LC) immediately rostral to the fourth ventricle and the VIIth nerve, used as anatomical landmarks, was cut coronally (400 μm thick). The slice was placed on a nylon mesh in a recording chamber (volume: 0.5 ml) where it was superfused by oxygenated aCSF (34.0±0.5° C.) at a rate of 2 to 3 ml/min. The LC was recognized as a translucent region during transillumination, lateral to the fourth ventricle. All experiments were performed in oxygenated aCSF with synaptic blockers consisting of 10 μM CNQX, 10 μM SR95531, 1 μM MK801, and 1 μM CGP55845, which block AMPA/Kainate, GABAA, NMDA, and GABAB receptors, respectively. This ensured that the spontaneous firing of the neurons was only due to its endogenous pace making.
Extracellular single cell recordings of LC neurons were performed with glass microelectrodes filled with aCSF (resistance 10-20 MΩ). Signals were passed through an impedance adapter and were amplified 1000× using a home-made amplifier. […] Data were collected and analysed with the Spike 2 software (Cambridge Electronic Design). […] The duration of the extracellularly recorded action potentials was 2-3 ms. Drugs and peptides were applied for at least 10 minutes.
The mean firing rate over 1 minute was calculated during each condition. Next, the inhibition of firing by the peptides and drugs used (LIH383 and dynorphin) was quantified as the % of total inhibition. For this purpose, present inventors considered the mean firing rate during the last minute of each condition (control, LIH383 alone, LIH383 plus a given concentration of dynorphin).

[3] = molecular target: T1, ACKR3; format: cell-based; set-up: expressed in transfected cells; host or cells: U87 cells, transient co-transfection of pNBe vectors
Target sequence in this assay (P25106 whole entry, the tested form may be a part): as above
Target sequence in this assay (P49407 whole entry partner, the tested form may be a part): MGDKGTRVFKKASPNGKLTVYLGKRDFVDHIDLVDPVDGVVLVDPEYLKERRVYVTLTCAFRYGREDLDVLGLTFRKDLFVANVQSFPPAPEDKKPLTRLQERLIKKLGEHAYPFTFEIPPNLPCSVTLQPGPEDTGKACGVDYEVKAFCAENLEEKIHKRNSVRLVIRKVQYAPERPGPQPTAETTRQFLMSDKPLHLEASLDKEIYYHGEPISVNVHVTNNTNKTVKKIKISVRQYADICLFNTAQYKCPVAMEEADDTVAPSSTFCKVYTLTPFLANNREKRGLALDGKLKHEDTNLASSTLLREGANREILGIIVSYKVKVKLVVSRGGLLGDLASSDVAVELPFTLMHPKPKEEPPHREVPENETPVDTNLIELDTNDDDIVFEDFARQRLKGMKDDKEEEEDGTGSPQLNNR

[4] = test system: ACKR3; assay: ACKR3 | EC50 (nM)
From the text: Table printed on a drawing sheet, FIG. 3 (continued) F
Head of the field: ACKR3 | EC50 (nM)
Footnotes: *NH2-substituted at C-terminus
The patent's description of the figure: FIG. 3. Structure-activity relationship analysis of adrenorphin variants on ACKR3 and classical opioid receptors. (A) Comparison of the impact of substitutions, truncations, extensions, D-amino acid replacement or dimerization on the agonist activity of adrenorphin towards ACKR3, MOR, DOR, KOR and NOP. The agonist activity or each variant was evaluated in β-arrestin-1 recruitment assay in U87 cells and expressed as fold change over the activity of wild-type adrenorphin. (B-E) Comparison of potency and efficacy of adrenorphin (B) and its variants bearing mutations Y1F (C), M5L (D) and R6A (E) to induce β-arrestin-1 recruitment to ACKR3 and the opioid receptors KOR, MOR, DOR and NOP in U87 cells. “˜” indicates a similar impact of the modification on the potency of the peptide towards ACKR3 and the indicated opioid receptor. Results represent the mean±S.E.M. (n ? 3) (F) Comparison of the potencies of peptide variants combining mutations Y1F with other modifications (mutations and/or extension) to induce β-arrestin-1 recruitment to ACKR3. Modified amino acids with respect to the mother peptide (Y1F adrenorphin […]) are underlined and in bold.
First copying reader's note: Bold underlined residues in the sequences mark modifications relative to the mother peptide; the pEC50 cells include the SEM after ±.
Where the first naming reader finds the target: head: ACKR3

CC[C@H](C)[C@H](NC(=O)[C@H](CCCNC(=N)N)NC(=O)[C@H](CCCNC(=N)N)NC(=O)[C@H](CC(C)C)NC(=O)[C@H](Cc1ccccc1)NC(=O)CNC(=O)CNC(=O)[C@@H](N)Cc1ccc(O)cc1)C(=O)N[C@@H](CCCNC(=N)N)C(=O)N1CCC[C@H]1C(=O)N[C@@H](CCCCN)C(=O)N[C@@H](CC(C)C)C(=O)N[C@@H](CCCCN)C(=O)N[C@@H](Cc1c[nH]c2ccccc12)C(=O)N[C@@H](CC(=O)O)C(=O)N[C@@H](CC(N)=O)C(=O)N[C@@H](CCC(N)=O)C(=O)O [dynorphin A]
apparent potency to activate KOR in the presence of ACKR3-expressing cells [1]: impaired
EC50 ([2]; LIH383 3 μM group, read-out: EC50 of dynorphin for inhibition of firing, one aberrant individual value that was omitted): 559 nM
concentration giving total inhibition of neuron depolarization (neuronal firing) ([2]; explants of rat locus coeruleus): 1 µM

C=CCN1CC[C@]23c4c5ccc(O)c4O[C@H]2C(=O)CC[C@@]3(O)[C@H]1C5 [naloxone]
effect of dynorphin A (1 μM) on neuronal firing rate after naloxone pretreatment [2]: did not lead to a change in neuronal firing rate

Oc1ccc2c3c1O[C@H]1c4[nH]c5c(c4C[C@@]4(O)[C@@H](C2)N(CC2CC2)CC[C@]314)C[C@@]1(O)[C@H]2Cc3ccc(O)c4c3[C@@]1(CCN2CC1CC1)[C@H]5O4 [nor-binaltrophimine, reference compound]
activity of opioid modulators towards ACKR3 in β-arrestin recruitment ([3]; 10 μM, 1 μM and 100 nM): Weak activation of ACKR3

CXCL10: irrelevant (negative control) chemokine
reversal of the ACKR3-mediated impairment of dynorphin A potency to activate KOR by pre-treatment ([1]; pre-treatment of ACKR3-expressing cells, saturating concentration): not

CXCL11: C—X—C motif chemokine 11, endogenous ACKR3 chemokine ligand
EC50 ([3]; U87 cells, read-out: EC50 in inducing β-arrestin recruitment to ACKR3): 2.2 nM

FGGFMRRF (peptide 44) [SEQ ID NO: 69]
EC50 [4]: 11 nM

FGGFMRRFR (peptide 45) [SEQ ID NO: 70]
EC50 [4]: 16.3 nM

FGGFMRRKR (peptide 2) [SEQ ID NO: 4]
EC50 [4]: 1.11 nM

FGGFMRRV* (mother peptide) [compound 35]
EC50 [4]: 9.33 nM

FGGFMRRVR (peptide 3) [SEQ ID NO: 5]
EC50 [4]: 3.97 nM

FGGWMRRF (peptide 47) [SEQ ID NO: 72]
EC50 [4]: 19.1 nM

FGGWMRRFR (peptide 46) [SEQ ID NO: 71]
EC50 [4]: 19.1 nM

FGGWMRRK (peptide 4) [SEQ ID NO: 6]
EC50 [4]: 4.03 nM

FGGWMRRKR (peptide 6) [SEQ ID NO: 11]
EC50 [4]: 7.34 nM

FGGWMRRV (peptide 43) [SEQ ID NO: 68]
EC50 [4]: 10.5 nM

FGGWMRRVR (peptide 5) [SEQ ID NO: 10]
EC50 [4]: 5.42 nM

YGGFMRRV* (adrenorphin) [compound 32]
EC50 [4]: 109 nM

dynorphin 2-13: endogenous truncated dynorphin variant [reference compound]
β-arrestin recruitment to ACKR3: agonist activity/potency in words ([3]; U87 cells): activated

dynorphin 2-17: endogenous truncated dynorphin variant (GGFLRRIRPKLKWDNQ; listed as Homo sapiens) [reference compound]
β-arrestin recruitment to ACKR3: agonist activity/potency in words ([3]; U87 cells): activated

Reference: US12578343B2, “Selective ACKR3 modulators and uses thereof” (Luxembourg Institute of Health (LIH), priority 2019, dated 2026)
